Measured values from patent US4415574A, “Soluble N2 substituted derivatives of 2,4-diamino 5-benzyl pyrimidine, process for their preparation and medicaments containing them” (S. A. Panmedica, priority 1981, dated 1983).

What was measured:
Assay type in all cases: cell-based
COLI [1] = test: Inhibiting minimum concentration (I.M.C.), activity relative to trimethoprime, MULLER HINTON COLI MEDIUM 4; conditions: for % activity with respect to the base: ratio of I.M.C. to trimethoprime; for % activity to the base corrected by molecular weight: ratio to trimethoprime
Description: (§1) The antibacterial activity of the derivatives according to the invention were tested in vitro by determining the inhibiting minimum concentrations (I.M.C.) on different germs.

BACIL PUMILUS = test: Inhibiting minimum concentration (I.M.C.), activity relative to trimethoprime, MULLER HINTON BACIL PUMILUS MEDIUM; conditions: for % activity with respect to the base: ratio of I.M.C. to trimethoprime; for % activity with respect to the base corrected by molecular weight: ratio to trimethoprime
Description: as §1

COLI [2] = test: Inhibiting minimum concentration (I.M.C.), activity relative to trimethoprime, OXOIDE COLI MEDIUM 4; conditions: for % activity with respect to the base: ratio of I.M.C. to trimethoprime; for % activity with respect to the base corrected by molecular weight: ratio to trimethoprime
Description: as §1

Row | Structure (SMILES) | % activity with respect to the base (COLI [1]) | % activity to the base corrected by molecular weight (COLI [1]) | % activity with respect to the base (BACIL PUMILUS) | % activity with respect to the base corrected by molecular weight (BACIL PUMILUS) | % activity with respect to the base (COLI [2]) | % activity with respect to the base corrected by molecular weight (COLI [2])
1 | COc1cc(Cc2cnc(NC(c3ccccc3O)S(=O)(=O)O)nc2N)cc(OC)c1OC (centres unmarked) [Example 25d, N2 (2-HYDROXY) PHENYL METHANE SULFONIC ACID OF 5-(3,4,5-TRIMETHOXY BENZYL) 2,4-DIAMINO PYRIMIDINE] | 45.4% | 85% | 55.5% | 104% | 28.3% | 53%
2 | CCOc1cc(C(Nc2ncc(Cc3cc(OC)c(OC)c(OC)c3)c(N)n2)S(=O)(=O)O)ccc1O (centres unmarked) [Example 24e, N2 (3-Ethoxy 4-Hydroxy) Phenyl Methane Sulfonic Acid of 5-(3,4,5-Trimethoxy Benzyl) 2,4-Diamino Pyrimidine] | 40.0% | 86% | 40.0% | 86% | 21.3% | 46%
3 | COc1cc(Cc2cnc(NC(C(C)(C)C)S(=O)(=O)O)nc2N)cc(OC)c1OC (centres unmarked) [Example 5, N2 (2,2-Dimethyl) Propane Sulfonic Acid of 2,4-Diamino 5-(3,4,5-Trimethoxy Benzyl) Pyrimidine] | 23.3% | 37% | 19.4% | 30% | 18.4% | 29%
4 | COc1cc(C(Nc2ncc(Cc3cc(OC)c(OC)c(OC)c3)c(N)n2)S(=O)(=O)O)ccc1O (centres unmarked) [Example 21, N2 (4-Hydroxy 3-Methoxy) Phenyl Methane Sulfonic Acid of 2,4-Diamino 5-(3,4,5-Trimethoxy Benzyl) Pyrimidine] | 43.3% | 79% | 34.6% | 63% | 49.8% | 90%
5 | COc1cc(Cc2cnc(NC(c3ccccc3O)S(=O)(=O)O)nc2N)cc(OC)c1OC (centres unmarked) [Example 25c, N2 (2-HYDROXY) PHENYL METHANE SULFONIC ACID OF 5-(3,4,5-TRIMETHOXY BENZYL) 2,4-DIAMINO PYRIMIDINE] | 57% | 116% |  |  |  | 
6 | COc1cc(Cc2cnc(NC(c3cccc([N+](=O)[O-])c3)S(=O)(=O)O)nc2N)cc(OC)c1OC (centres unmarked) [Example 13, N2 (3-Nitro Phenyl) Methane Sulfonic Acid of 2,4-Diamino 5-(3,4,5-Trimethoxy Benzyl) Pyrimidine] | 17.2% | 31% | 23.2% | 42% | 32.5% | 59%
7 | CCOc1cc(C(Nc2ncc(Cc3cc(OC)c(OC)c(OC)c3)c(N)n2)S(=O)(=O)O)ccc1O (centres unmarked) [Example 24b, N2 (3-Ethoxy 4-Hydroxy) Phenyl Methane Sulfonic Acid of 5-(3,4,5-Trimethoxy Benzyl) 2,4-Diamino Pyrimidine] | 43.9% | 84% | 42.2% | 79% | 48.7% | 93%
8 | COc1cc(Cc2cnc(NC(c3ccccc3O)S(=O)(=O)O)nc2N)cc(OC)c1OC (centres unmarked) [Example 25f, N2 (2-HYDROXY) PHENYL METHANE SULFONIC ACID OF 5-(3,4,5-TRIMETHOXY BENZYL) 2,4-DIAMINO PYRIMIDINE] | 55.4% | 120% | 73.1% | 159% | 38.3% | 84%
9 | CCOc1cc(C(Nc2ncc(Cc3cc(OC)c(OC)c(OC)c3)c(N)n2)S(=O)(=O)O)ccc1O (centres unmarked) [Example 24d, N2 (3-Ethoxy 4-Hydroxy) Phenyl Methane Sulfonic Acid of 5-(3,4,5-Trimethoxy Benzyl) 2,4-Diamino Pyrimidine] | 23.2% | 46% | 37.0% | 74% | 13.1% | 26%
10 | CCCC(Nc1ncc(Cc2cc(OC)c(OC)c(OC)c2)c(N)n1)S(=O)(=O)O (centres unmarked) [Example 3, N2 Butane Sulfonic Acid of 2,4-Diamino 5-(3,4,5-Trimethoxy Benzyl) Pyrimidine] | 4.55% | 10.8% | 2.9% | 6.8% | 18.35% | 28%
11 | COc1cc(Cc2cnc(NC(C)S(=O)(=O)O)nc2N)cc(OC)c1OC (centres unmarked) [Example 2, N2 Ethane Sulfonic acid of 2,4-Diamino 5-(3,4,5-Trimethoxy Benzyl) Pyrimidine] | 4.3% | 6.2% | 2.8% | 4% | 4% | 5.8%
12 | COc1cc(Cc2cnc(NC(c3ccc(Cl)cc3)S(=O)(=O)O)nc2N)cc(OC)c1OC (centres unmarked) [Example 11, N2 (4-Chloro Phenyl) Methane Sulfonic Acid of 2,4-Diamino 5-(3,4,5-Trimethoxy Benzyl) Pyrimidine] | 17.6% | 31% | 23% | 41% | 25.6% | 45%
